One molecule from patent US5283246A, “Trimetazidine compounds” (Adir et Compagnie, priority 1991, dated 1994) can be followed below.

In one assay the test system is rat aorta. The assay is described as follows: Study on isolated vessels: vascular relaxing effect on a rat aorta contracted by potassium (80 mM). The conditions noted are these: rat aorta rings without endothelium contracted by potassium (80 mM). Also on record: species or system Wistar rat. As to the method:
The thoracic aorta of Wistar rats (325-375 g) that have been anaesthetized by the intraperitoneal route with sodium pentobarbital (30 mg/kg) is removed and dissected into rings 3 mm in length; the endothelium is removed by gentle abrasion using a piece of wood. Each ring is connected to a Statham pressure sensor (UC2-Gould). The initial pressure applied is 2.5 g. The physiological solution used, maintained at 37° C., has the following composition (mM): NaCl 112; KCl 5; KH2 PO4 1; MgSO4 1.2; CaCl2 2.5; NaHCO3 25; glucose 11.; EDTA 0.026. After a stabilization period of 90 minutes, the aorta rings are subjected to a hyperpotassic medium (80 MM KCl and 37 mM NaCl). When the contraction is stable, cumulative concentrations of compound are added to the medium every 15 minutes. The relaxation values obtained enable calculation of the IC50.

The subject of the next assay is human LDLs. The assay is described as follows: Modification of human LDLs by copper sulphate (lipid peroxidation, MDA production). It is filed as biochemical. The conditions noted are these: copper sulphate 5×10^-6 M, 24 hours; read-out: IC50, inhibition of copper-induced modification (MDA production) of human LDLs. As for the experimental part: Human LDLs are incubated for 24 hours in the presence of copper sulphate (5×10^-6 M) and in the absence or presence of the compounds tested (10^-7 M to 10^-4 M). After incubation, the peroxidation of the LDLs is evaluated by electrophoresis on agar gel and by the formation of one of the products of lipid peroxidation malonic dialdehyde (MDA), (Parthasarathy S., Young S. G., Witztum J. L., Pittman R. C. and Steinberg, D.; J. Clin. invest. 77; 641-644, 1986).
The activity of the tested compounds is evaluated by calculating those concentrations (IC50) that reduce the production of MDA by 50% compared with control experiments in the absence of the tested compound.

The subject of the next assay is pigs. Put plainly: Myocardial ischaemia induced by coronary stenosis in pigs. Type of assay: in vivo, Large White pig. As for the experimental part: The study is carried out on "Large White" pigs of both sexes aged 3 months and weighing 21 to 26 kg. The animals are tranquillized using midazolam (I mg/kg i.m.), then anaesthetized with sodium thiopental (8 mg/kg i.v.). The anaesthesia is maintained by a perfusion of 6 to 8 mg/kg/h. They are immediately intubated and ventilated with a mixture of air+O2. A "T" thoracotomy is carried out by longitudinal section of the sternum and incision between the 4th and 5th rib. The heart is suspended in a pericardial cradle made by cutting and fixing the pericardium at four points to the thoracic muscles. An electromagnetic flow ring is placed around the anterior interventricular branch of the left coronary, and a small pneumatic balloon is placed immediately downstream of that ring. This assembly is for the purpose of effecting coronary stenosis by controlling the flow. Piezoelectric crystals connected to a Triton sonomicrometer are implanted in the lower endocardium of the left ventricular wall according to a circumferential plane perpendicular to the cardiac axis. These crystals are for recording the regional myocardial contractility and endocardial ECGs in the area supplied by the stenosed coronary artery. Epicardial ECGs are also recorded in those areas by means of electrodes fixed to the myocardium. Myocardial ischaemia is effected by inflating the small balloon which induces a reduction in flow of 50 to 60 Two identical 3 minute stenoses with reproducible and reversible effects are carried out, separated by a recovery period of 55 minutes. The treatment is administered by five minutes' perfusion by the venous route 10 minutes before the stenosis perfusion of solvent before first stenosis perfusion of the compound or solvent before the second stenosis. The regional myocardial contractility is determined by the fraction of systolic shortening of the segment lengths comprised between the piezoelectric crystals. The hypokinesis in the ischaemic zone is expressed as a percentage variation in relation to the contractility measured in the control period. The modification of the epicardial and endocardial ECGs in the ischaemic zone consists in a superelevation of the segment S.T. measured in millivolts (mV).

A further assay relates to cardiac cells. The assay is described as follows: Oxidative necrosis of cardiac cells induced by hypoxanthine/xanthine-oxidase (XO + HX). Type of assay: cell-based, rat (newborn). The conditions noted are these: Rattus norvegicus, 4 h. As to the method:
The cardiac cells of newborn rats are used between the 5th and 6th days after placing in culture. Oxidative necrosis is induced by the free radical-producing enzymatic system hypoxanthine (HX, 1 -mm) and xanthineoxidase (XO, 10 mU/ml). The necrosis is evaluated 4 hours after the addition of XO/HX by measuring by spectrophotometry the cytosolic α-hydroxybutyrate dehydrogenase (a-HBDH) activity liberated in the supernatant. The cells are treated with the test compounds 16 hours and 1 hour before the beginning of the experiment after renewing the medium. At the beginning of the experiment, the treatment is carried out again one last time.
Table 3 lists the necrosis indices of cardiac cells induced by the hypoxanthine/xanthine-oxidase system alone or in the presence of increasing concentrations of the compounds of the invention.

The test system of the next assay is isolated hearts of rats. Put plainly: Hypoxia reoxygenation on the isolated heart of a rat. Also on record: species or system Wistar rat. As for the experimental part:
The hearts of male Wistar rats (325-375 g--Charles River breed) anaesthetized by the intraperitoneal route with sodium pentobarbital (30 mg/kg) are removed after the injection of heparin i.v. (1 ml/kg) and rapidly perfused by the Langendorff technique at a constant pressure of 76 mmhg and stimulated electrically at 5 Hz. The isovolumetric contractions are recorded by way of a small polyethylene balloon connected to a pressure sensor (P23-Gould) introduced into the left ventricle and inflated so as to obtain a diastolic pressure of approximately 10 mmhg. The physiological solution used, maintained at 37° C., has the following composition (mM): NaCl 118; KCl 4.7; KH2 PO4 1.2; MgCl2 1.2; CaCl2 1.3; NaHCO3 25; glucose 8, pH 7.4/95% O2 +5% CO2.
After a period of stabilization of from 15 to 30 minutes, the heart is subjected to hypoxia for 60 minutes (effected with 95% N2 and 5% CO2; PO2 <40 mmHg), followed by reoxygenation for 30 minutes; the compound is added to the incubation medium 15 minutes before and during the period of hypoxia.

[1] abbreviates: 1 mg/kg intravenous before second stenosis, compared with first stenosis.

The structures appear in SMILES notation.

One may read the IC50 as the concentration needed to halve the response being measured. In the assay on rat aorta, `COc1ccc(CN2CCN(CCCCCOc3cc(C)c(O)c(C)c3C)CC2)c(OC)c1OC` [Example 10, 4-(2,3,4-trimethoxybenzyl)-l-[5-(4-hydroxy-2,3,5-trimethylphenoxy)pentyl]piperazine] gave an IC50 of 2 µM. The IC50 in the assay on human LDLs came out at 0.03 µM. Moreover, the “ST superelevation, endocardial ECG, second stenosis (ST2)” value in the assay with pigs (1 mg/kg i.v. before second stenosis, ST1 (solvent) of same group 3.4 ± 0.4, control ST2 2.4 ± 0.51) turned out to be 1.9 ± 0.5 mV. Further, in the assay with pigs (1 mg/kg i.v. before second stenosis, ST1 (solvent) of same group 4.6 ± 1.0, control ST2 3.16 ± 1.2), the “ST superelevation, epicardial ECG, second stenosis (ST2)” value was 2.5 ± 0.6 mV. The “% residual myocardial contractility, second stenosis (ST2)” value in the assay with pigs (1 mg/kg i.v. before second stenosis, ST1 (solvent) of same group 20.4 ± 3.3, control ST2 25.2 ± 3.0) is on record as 29.4 ± 2.6%. In the assay with pigs (setting [1]), the “improvement in the regional contractility in the ischaemic zone” value turned out to be 50%; the “reduction of the superelevation of the segment ST, endocardial electrocardiogram” value is given as 45%; the “reduction of the superelevation of the segment ST, epicardial electrocardiogram” value came out at 45%. For the same molecule, the activity at 10 µM in the assay on cardiac cells (10^-5 M, XO + HX, control XO + HX = 100.0, read-out: necrosis index of cardiac cells, XO + HX, compound 10^-5 M) was 12.6 ± 1.3%. In addition, the activity at 1 µM in the assay on cardiac cells (10^-6 M, XO + HX, control XO + HX = 100.0, read-out: necrosis index of cardiac cells, XO + HX, compound 10^-6 M) is 18.8 ± 3.7%. Besides, the activity at 0.1 µM with cardiac cells (10^-7 M, XO + HX, control XO + HX = 100.0, read-out: necrosis index of cardiac cells, XO + HX, compound 10^-7 M) was 88.8 ± 0.4%. Moreover, the minimal effective concentration in the assay on cardiac cells (XO + HX induced oxidative necrosis, read-out: concentration at which compounds prove to be protective against necrosis) was not below 0.1 µM. The “functional recovery of the hearts during reoxygenation” value in the assay with isolated hearts of rats (Example 1 at 3×10^-7 M, 10 at 10^-7 M, 13 at 7×10^-7 M, 40% in the control experiments) is on record as “more than 70%”. Also, in the assay with isolated hearts of rats (end of 30 min reoxygenation, Example 1 at 3×10^-7 M, 10 at 10^-7 M, 13 at 7×10^-7 M, vs control), the “reduction of the developing contracture at the end of 30 minutes reoxygenation” value is given as “more than 70%”. The “Contracture, hypoxia 10 min” value with isolated hearts of rats (hypoxia 10 min, Example 1 at 3 × 10^-7 M, Example 10 at 10^-7 M, Example 13 at 7 × 10^-7 M, control 23.7 ± 6.8) is 15.3 ± 3.7 mm Hg. Moreover, the “Contracture, hypoxia 30 min” value with isolated hearts of rats (hypoxia 30 min, Example 1 at 3 × 10^-7 M, Example 10 at 10^-7 M, Example 13 at 7 × 10^-7 M, control 33.7 ± 8.9) turned out to be 16.0 ± 6.4 mm Hg. For the same molecule, the “Contracture, hypoxia 60 min” value with isolated hearts of rats (hypoxia 60 min, Example 1 at 3 × 10^-7 M, Example 10 at 10^-7 M, Example 13 at 7 × 10^-7 M, control 32.3 ± 7.4) worked out at 14.7 ± 4.4 mm Hg. In addition, the “Contracture, reoxygenation 15 min” value in the assay on isolated hearts of rats (reoxygenation 15 min, Example 1 at 3 × 10^-7 M, Example 10 at 10^-7 M, Example 13 at 7 × 10^-7 M, control 20.6 ± 7.8) was determined as 7.3 ± 5.5 mm Hg. The “Contracture, reoxygenation 30 min” value in the assay with isolated hearts of rats (reoxygenation 30 min, Example 1 at 3 × 10^-7 M, Example 10 at 10^-7 M, Example 13 at 7 × 10^-7 M, control 12.3 ± 6.1) is given as 2.7 ± 2.7 mm Hg.
